Values quoted from earlier work as cited in patent US20060229344A1, “Method of treating amyotrophic lateral sclerosis” (priority 2005, published 2006).

Tests used:
[1] = in vivo
[2] = in vivo; remark: listed apart in the source

Cc1cc(CCCOc2c(C)cc(-c3noc(C(F)(F)F)n3)cc2C)on1 [VP 63843, 3-[3,5-dimethyl-4-[[3-(3-methyl-5-isoxazolyl)propyl]oxy]phenyl]-5-(trifluoromethyl)-1,2,4-oxadiazole]
side-effects [1]: few side-effects | tolerability [1]: well tolerated | toxicity [1]: little toxicity | absorption after oral administration: well absorbed | crossing into the central nervous system and gray matter [2]: crosses readily into the central nervous system and into gray matter
